Results on 12 compounds are retold here after US20220340665A1, “INHIBITOR AGAINST EXPRESSION OF IMMUNE CHECKPOINT MOLECULE” (RENASCIENCE INC., priority 2019, published 2022).

Assay [1] concerns cancer cell line (B16F10). The assay is described as follows: PD-L1 expression induced by rPAI-1 in B16F10 with STAT3 inhibitor (Experimental Example 18). The settings on record: simultaneous addition of rPAI-1 and STAT3 inhibitor. Type of assay: cell-based, mouse. Here is the method: In order to clarify the mechanism of induction of PD-L1 expression by PAI-1, rPAI-1 was added to a culture medium of a cancer cell line (B16F10); after culturing for 6 hours, the cells were collected, and the degree of phosphorylation of JAK/STAT molecules was analyzed.
Further, FIG. 18(B) confirmed that the increase in the PD-L1 expression induced by rPAI-1 was suppressed by simultaneous addition of rPAI-1 and a STAT3 inhibitor (BP-1-102, C188-9).

For assay [2], the target named is T1, human PAI-1 (Homo sapiens, UniProt P05121). In words: PAI-1 inhibitory activity, t-PA with S-2288 chromogenic substrate (Reference Experimental Example 1). The note with it: system without compound after 30 minutes = 100%.
Experimental: Subsequently, human-derived tissue plasminogen activator (t-PA) (manufactured by American Diagnostica, Inc. (USA); the same applies hereinafter) adjusted to 0.35 pmol/μL was added thereto, and the mixture was further incubated at 37° C. for 15 minutes.
Assay [3] concerns the target T1, human PAI-1. The assay is described as follows: PAI-1 inhibitory activity, t-PA with Spectrozyme t-PA chromogenic substrate (Reference Experimental Example 2). It counts as biochemical. The arrangement: purchased Molecular Innovations, Inc. (USA). The settings on record: head prints no concentration. Here is the method:
Subsequently, human-derived tissue plasminogen activator (t-PA) (manufactured by American Diagnostica, Inc. (USA); the same applies hereinafter) adjusted to 0.05 pmol/μL was added thereto, and the mixture was further incubated at 37° C. for 60 minutes. Then, 0.25 mM of Spectrozyme t-PA synthetic substrate (manufactured by American Diagnostica, Inc. (USA); the same applies hereinafter), which is a chromogenic substrate, was added. […]
Free p-nitroaniline removed from the chromogenic substrate (Spectrozyme t-PA) by t-PA action was measured using a spectrophotometer at an absorbance of 405 nm at 20-minute intervals, for 120 minutes.

Setting [4] is: Tables 5 to 7, first value column.
Where [5] appears, read: Tables 5 to 7, second value column.

T1 sequence (P05121 24-402): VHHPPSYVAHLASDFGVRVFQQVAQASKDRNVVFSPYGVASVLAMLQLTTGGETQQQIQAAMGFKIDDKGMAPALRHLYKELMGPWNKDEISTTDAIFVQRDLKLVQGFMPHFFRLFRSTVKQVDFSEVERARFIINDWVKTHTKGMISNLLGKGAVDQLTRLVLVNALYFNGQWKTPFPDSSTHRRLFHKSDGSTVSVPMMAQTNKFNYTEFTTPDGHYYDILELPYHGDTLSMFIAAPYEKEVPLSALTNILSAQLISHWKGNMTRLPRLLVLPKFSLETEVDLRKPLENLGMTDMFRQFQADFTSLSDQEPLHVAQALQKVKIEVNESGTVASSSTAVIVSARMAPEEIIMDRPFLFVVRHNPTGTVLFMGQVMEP

For `CN(CC(=O)N(Cc1ccc(C2CCCCC2)cc1)c1ccc(C(=O)O)c(O)c1)S(=O)(=O)c1c(F)c(F)c(F)c(F)c1F` [BP-1-102], the “increase in the PD-L1 expression induced by rPAI-1” value in assay [1] is given as “suppressed”.

On to `O=C(CCCNC(=O)c1cccc(-c2ccoc2)c1)Nc1ccc(Cl)cc1C(=O)O` [Example 1], for which the PAI-1 activity % on human PAI-1 [2] (compound 20 μm (head)) was found to be 95.5%; on human PAI-1 [2] (compound 50 μm (head)), 48.9%.

Turning to `O=C([O-])c1cc(Cl)ccc1NC(=O)C1CCCN(C(=O)c2cccc(-c3ccoc3)c2)C1.[Na+]` (stereo not shown) [Example 11], the figures for the PAI-1 activity % at human PAI-1 [2] (compound 20 μm (head)) and at human PAI-1 [2] (compound 50 μm (head)) were 68.2% and 26.1%, respectively.

Turning to `O=C(O)c1cc(Cl)ccc1NC(=O)C1CCCN(C(=O)Cc2cccc(-c3ccoc3)c2)C1` (stereo not shown) [Example 12], the PAI-1 activity % is 57.7% at human PAI-1 [2] (compound 20 μm (head)) and 15.7% on human PAI-1 [2] (compound 50 μm (head)).

Consider `O=C(Nc1ccc(Cl)cc1C(=O)[O-])c1cccc(OCc2ccc3ccccc3n2)c1.[Na+]` [Example 99, 5-chloro-2-(((3-(quinolin-2-ylmethoxy)phenyl)carbonyl)amino)sodium benzoate], for which the PAI-1 activity % at human PAI-1 [3] (setting [4]) amounted to 0.3%; at human PAI-1 [3] (setting [5]), 87.8%.

For `O=C(Nc1ccc(Cl)cc1C(=O)[O-])c1ccc(OCc2ccc3ccccc3n2)cc1.[Na+]` [Example 100, 5-chloro-2-(((4-(quinolin-2-ylmethoxy)phenyl)carbonyl)amino)sodium benzoate], the PAI-1 activity % is reported as 0.7% on human PAI-1 [3] (setting [4]) and 92.1% on human PAI-1 [3] (setting [5]).

As for `O=C(/C=C/c1cccc(-c2cccc3cccnc23)c1)Nc1ccc(Cl)cc1C(=O)[O-].[Na+]` [Example 101, 5-chloro-2-(((2E)-3-(3-(quinolin-8-yl)phenyl)prop-2-enoyl)amino)sodium benzoate], the PAI-1 activity % at human PAI-1 [3] (setting [4]) is 0.2%; on human PAI-1 [3] (setting [5]) it was 24.7%.

On to `O=C(/C=C/c1cccc(-c2cccnc2)c1)Nc1ccc(Cl)cc1C(=O)[O-].[Na+]` [Example 103, 5-chloro-2-(((2E)-3-[3-(pyridin-3-yl)phenyl]prop-2-enoyl)amino)sodium benzoate], for which the PAI-1 activity % on human PAI-1 [3] (setting [4]) was 34.2%; at human PAI-1 [3] (setting [5]) it was 92.3%.

With `O=C(Nc1ccc(C23CC4CC(CC(C4)C2)C3)cc1)C(=O)Nc1ccc(Cl)cc1C(=O)[O-].[Na+]` [Example 106, [(([4-(adamantan-1-yl)phenyl]amino)(oxo)acetyl)amino]-5-sodium chlorobenzoate], the figures for the PAI-1 activity % at human PAI-1 [3] (setting [4]) and on human PAI-1 [3] (setting [5]) were 26.3% and 88.4%, respectively.

With `O=C([O-])c1cc(Cl)ccc1NC(=O)c1cc(-c2ccccc2)nc2ccccc12.[Na+]` [Example 107, 5-chloro-2-(((2-phenylquinolin-4-yl)carbonyl)amino)sodium benzoate], the PAI-1 activity % on human PAI-1 [3] (setting [4]) stood at 6.7%; on human PAI-1 [3] (setting [5]) it was 100.0%.

Regarding `COc1ccc(S(=O)(=O)Nc2cc(-c3c(O)ccc4ccccc34)c(O)c3ccccc23)cc1` [Example C188-9], the “increase in the PD-L1 expression induced by rPAI-1” value in assay [1] is listed as “suppressed”.

With `O=C(COc1ccc(C2CCCCC2)cc1)Nc1ccc(Cl)cc1C(=O)O` [Existing compound 3, 5-chloro-2-(((4-cyclohexylphenoxy)aceytl)amino)benzoic acid, reference compound], the PAI-1 activity % is on record as 0.3% on human PAI-1 [3] (setting [4]) and 36.3% on human PAI-1 [3] (setting [5]).
